The NIST ThermoML archive (doi:10.1021/je100825b)

Details: Liquid, Drop weight

CCCCCCC [heptane] + O=C=O
interfacial tension [mN/m]
Details	323 K	353 K
100 kPa	16.8	13.6
2100 kPa	–	10.6
3100 kPa	10.1	–
4000 kPa	–	7.8
4500 kPa	7.8	–
5500 kPa	5.7	–
5600 kPa	–	6.1
6900 kPa	–	4.7
7900 kPa	1.5	–
8500 kPa	–	2.9
9300 kPa	0.11	–
10300 kPa	–	0.8
11200 kPa	–	0.2

N#N [nitrogen] + CCCCCCC
323.2 K
Details	interfacial tension [mN/m]
100 kPa	17.6
3400 kPa	16
6900 kPa	13.7
10400 kPa	12

C [methane] + CCCCCCC
298.2 K
Details	interfacial tension [mN/m]
100 kPa	19.8
2000 kPa	16.5
3000 kPa	15
4000 kPa	13.4
6000 kPa	10.1
8000 kPa	7.9
15000 kPa	2.3
